Values joined by “and” are separate entries in the source; they are usually repeats but may differ in a detail not shown here. Equal values may be shown once.
What was measured:
Rattus norvegicus [1] = conditions: for LC50 / LD50: acute
Oryctolagus sp. = conditions: for LD50: acute
Mus musculus = conditions: acute, injection
Rattus norvegicus [2] = conditions: chronic; duration: 2 years; oral; diet; M/F; neurotoxicity
[3] = developmental, duration: 14 days, oral, gavage, Wistar
[4] = short-term, duration: 12 days, inhalation, F, Crl:CD1
[5] = short-term, duration: 28 days, oral, gavage, Wistar
[6] = reproduction developmental, duration: 13 days, oral, gavage, F, New Zealand
[7] = reproduction developmental, oral, diet, Sprague-Dawley, generation: F1

`C1OCOCO1` [1,3,5-Trioxane] was tested. Which LC50 (Rattus norvegicus [1]; inhalation) did it give?
Its LC50 is > 39200 mg/m3.

And the LD50 (Rattus norvegicus [1]; oral, gavage)?
Its LD50 is 8190 mg/kg.

And the LOAEL (Rattus norvegicus [1]; [3])?
Its LOAEL is 315 mg/kg-day.

And the NOAEL (Rattus norvegicus [1]; [3])?
Its NOAEL is 100 mg/kg-day.

What about the LOAEL (Rattus norvegicus [1]; reproduction developmental, duration: 14 days, oral, gavage, F, Wistar) of the same molecule?
The LOAEL was 100 mg/kg-day.

And the LOAEL (Rattus norvegicus [1]; [4])?
Its LOAEL is 3630 mg/m3.

What about the NOAEL (Rattus norvegicus [1]; [4]) of the same molecule?
Its NOAEL is 379 mg/m3.

What about the LOAEL (Rattus norvegicus [1]; [5]) of the same molecule?
The LOAEL was 1000 mg/kg-day.

What about the NOAEL (Rattus norvegicus [1]; [5]) of the same molecule?
Its NOAEL is 200 mg/kg-day.

And the LD50 (Oryctolagus sp.; dermal)?
The LD50 was > 3980 mg/kg.

With `Clc1ccccn1` [2-Chloropyridine] as the molecule, how does the LD50 (Rattus norvegicus [1]; oral, gavage) read?
The LD50 was 342 mg/kg.

And the LD50 (Oryctolagus sp.; dermal)?
Its LD50 is < 200 mg/kg.

For `C=CC(C)C#N` (stereo not drawn) [2-Methyl-3-butenenitrile], which LC50 (Rattus norvegicus [1]; inhalation, Sprague-Dawley) is on record?
Its LC50 is 9950 mg/m3.

And the LD50 (Oryctolagus sp.; dermal, occlusive, New Zealand)?
Its LD50 is 482 mg/kg.

Which LC50 (Rattus norvegicus [1]; Inhalation, Wistar) does the source give for `CC(CO)CO` [2-Methylpropane-1,3-diol] here?
Its LC50 is > 5100 mg/m3.

And the LD50 (Rattus norvegicus [1]; oral, gavage, Wistar)?
Its LD50 is > 5000 mg/kg.

What about the NOAEL (Rattus norvegicus [1]; developmental, duration: 20 days, oral, gavage, Wistar) of the same molecule?
The NOAEL was 1000 mg/kg-day.

What about the NOAEL (Rattus norvegicus [1]; reproduction developmental, duration: 20 days, oral, gavage, F, Wistar) of the same molecule?
The NOAEL was 1000 mg/kg-day.

What about the NOAEL (Rattus norvegicus [1]; reproduction developmental, duration: 20 days, oral, gavage, Wistar, generation: F1) of the same molecule?
The NOAEL was 1000 mg/kg-day.

What about the NOAEL (Rattus norvegicus [1]; reproduction developmental, duration: 90 days, oral, gavage, Wistar, generation: F0) of the same molecule?
Its NOAEL is 1000 mg/kg-day.

What about the NOAEL (Rattus norvegicus [1]; short-term, duration: 14 days, oral, gavage, Wistar) of the same molecule?
The NOAEL was 1000 mg/kg-day.

What about the NOAEL (Rattus norvegicus [1]; subchronic, duration: 90 days, oral, gavage, Wistar) of the same molecule?
The NOAEL was 1000 mg/kg-day.

And the LD50 (Oryctolagus sp.; dermal, New Zealand)?
The LD50 was > 2000 mg/kg.

What about the NOAEL (Oryctolagus sp.; reproduction developmental, duration: 28 days, oral, gavage, F, New Zealand) of the same molecule?
Its NOAEL is 1000 mg/kg-day.

What about the NOAEL (Oryctolagus sp.; reproduction developmental, duration: 28 days, oral, gavage, New Zealand, generation: F1) of the same molecule?
The NOAEL was 1000 mg/kg-day.

How did the LD50 (Rattus norvegicus [1]; oral, gavage, Sprague-Dawley) turn out when `CCCCNC(=O)OCC#CI` [3-Iodo-2-propynyl-N-butylcarbamate] was run?
Its LD50 is 1800 mg/kg and 1470 mg/kg and 1060 mg/kg.

And the NOAEL (Oryctolagus sp.; [6])?
Its NOAEL is 20 mg/kg-day.

And the NOAEL (Oryctolagus sp.; reproduction developmental, duration: 13 days, oral, gavage, New Zealand, generation: F1)?
Its NOAEL is 50 mg/kg-day.

And the NOAEL (Oryctolagus sp.; subchronic, duration: 90 days, oral, diet, New Zealand)?
Its NOAEL is 16.5 mg/kg-day.

`CCCCN(CCCC)C(=S)SCSC(=S)N(CCCC)CCCC` [4,4'-Methylene bis(dibutyldithiocarbamate)] was tested. Which LD50 (Rattus norvegicus [1]; oral) did it give?
Its LD50 is 16000 mg/kg.

What about the NOAEL (Rattus norvegicus [1]; reproduction developmental, oral, diet, Sprague-Dawley, generation: F0) of the same molecule?
Its NOAEL is 1000 ppm.

What about the LOAEL (Rattus norvegicus [1]; [7]) of the same molecule?
Its LOAEL is > 20000 ppm.

What about the NOAEL (Rattus norvegicus [1]; [7]) of the same molecule?
Its NOAEL is > 20000 ppm.

What about the LD50 (Oryctolagus sp.; dermal) of the same molecule?
Its LD50 is > 2000 mg/kg.

Which LD50 (Mus musculus; Intraperitoneal) does the source give for `CC(C)(C)c1cc(C(C)(C)c2ccc(O)c(C(C)(C)C)c2)ccc1O` [4,4'-Propane-2,2-diylbis(2-tert-butylphenol)] here?
The LD50 was 40 mg/kg.

And the LD50 (Mus musculus; intraperitoneal)?
The LD50 was 40 mg/kg.

With `CCCCCCCC/C=C/CCCCCCCCN.F` [9-Octadecen-1-amine, hydrofluoride] as the molecule, how does the NOAEL (Rattus norvegicus [1]; reproduction developmental, oral, gavage, Long-Evans, generation: F0) read?
Its NOAEL is 6 mg/kg-day.

What about the NOAEL (Rattus norvegicus [1]; reproduction developmental, oral, gavage, Long-Evans, generation: F1) of the same molecule?
The NOAEL was 30 mg/kg-day.

And the LOAEL (Oryctolagus sp.; [6])?
The LOAEL was 1.2 mg/kg-day.

`CN(C)C(=S)SSC(=S)N(C)C` [Bis(dimethylaminothiocarbonyl) disulfide] was tested. Which LEL (Rattus norvegicus [2]) did it give?
The LEL was 15 mg/kg-day.

What about the NOEL (Rattus norvegicus [2]) of the same molecule?
Its NOEL is 5 mg/kg-day.

And the LD50 (Rattus norvegicus [1]; dermal)?
Its LD50 is > 5000 mg/kg.

What about the LC50 (Rattus norvegicus [1]; inhalation, particle) of the same molecule?
The LC50 was > 6.22 mg/L.

What about the LD50 (Rattus norvegicus [1]; oral, gavage, Sprague-Dawley) of the same molecule?
The LD50 was 1080 mg/kg.

What about the NOAEL (Rattus norvegicus [1]; reproduction developmental, duration: 10 days, oral, gavage, Crl:CD1, generation: F1) of the same molecule?
The NOAEL was 7.5 mg/kg-day.

What about the NOAEL (Rattus norvegicus [1]; reproduction developmental, duration: 10 days, oral, gavage, F) of the same molecule?
Its NOAEL is > 30 mg/kg-day.

What about the NOAEL (Rattus norvegicus [1]; reproduction developmental, duration: 10 days, oral, gavage, F, Crl:CD1) of the same molecule?
The NOAEL was 7.5 mg/kg-day.

And the NOAEL (Rattus norvegicus [1]; reproduction developmental, duration: 10 days, oral, gavage, generation: F1)?
Its NOAEL is 7.5 mg/kg-day.

What about the NOAEL (Rattus norvegicus [1]; reproduction developmental, duration: 81 days, oral, diet, generation: F1) of the same molecule?
The NOAEL was 60 ppm and 180 ppm.

And the NOAEL (Rattus norvegicus [1]; subchronic, duration: 90 days, oral, diet, F)?
Its NOAEL is 2.5 mg/kg-day.

What about the NOAEL (Rattus norvegicus [1]; subchronic, duration: 90 days, oral, diet, M) of the same molecule?
Its NOAEL is 2.5 mg/kg-day.

What about the LD50 (Oryctolagus sp.; dermal) of the same molecule?
Its LD50 is ≥ 2000 mg/kg.

And the LD50 (Oryctolagus sp.; dermal, New Zealand)?
Its LD50 is > 7940 mg/kg.

What about the NOAEL (Oryctolagus sp.; reproduction developmental, duration: 14 days, oral, gavage, F, New Zealand) of the same molecule?
The NOAEL was 5 mg/kg-day.

And the NOAEL (Oryctolagus sp.; reproduction developmental, duration: 14 days, oral, gavage, New Zealand, generation: F1)?
Its NOAEL is 5 mg/kg-day.

What does the source list for `O=c1[nH]c(=O)[nH]c(=O)[nH]1` [Cyanuric acid]?
LD50 (Rattus norvegicus [1]; oral, gavage, Sprague-Dawley): > 5000 mg/kg; LD50 (Oryctolagus sp.; dermal, occlusive, New Zealand): > 5000 mg/kg

Which LC50 (Rattus norvegicus [1]; inhalation, particle) does the source give for `ClC1=C(Cl)C2(Cl)C3CCC4C(CCC3C1(Cl)C2(Cl)Cl)C1(Cl)C(Cl)=C(Cl)C4(Cl)C1(Cl)Cl` (stereo not drawn) [Dechlorane Plus] here?
The LC50 was > 300 mg/L.

And the LC50 (Rattus norvegicus [1]; inhalation, particle, Charles-River)?
The LC50 was > 2.25 mg/L.

And the LD50 (Rattus norvegicus [1]; oral, gavage, Sprague-Dawley)?
The LD50 was > 3160 mg/kg.

What about the LD50 (Rattus norvegicus [1]; oral, gavage, Wistar) of the same molecule?
Its LD50 is > 25000 mg/kg.

What about the NOAEL (Rattus norvegicus [1]; reproduction developmental, duration: 13 weeks, oral, diet, Crl, generation: F0) of the same molecule?
The NOAEL was 100000 ppm.

And the LOAEL (Rattus norvegicus [1]; reproduction developmental, duration: 28 days, inhalation, particle, Charles River COB, generation: F0)?
The LOAEL was 0.64 mg/L.

And the LD50 (Oryctolagus sp.; dermal)?
The LD50 was > 8000 mg/kg.

What about the LOAEC (Oryctolagus sp.; reproduction developmental, duration: 4 weeks, dermal, non-occlusive, New Zealand, generation: F0) of the same molecule?
Its LOAEC is 2000 mg/kg-day.

How did the LC50 (Rattus norvegicus [1]; Inhalation, Wistar) turn out when `CC(C)CCCCCCc1cccc2c(CCCCCCC(C)C)cccc12` [Diisononylnaphthalene] was run?
Its LC50 is > 17 mg/L.

What about the LD50 (Rattus norvegicus [1]; oral, gavage, Wistar) of the same molecule?
Its LD50 is > 5000 mg/kg.

And the LD50 (Oryctolagus sp.; dermal, New Zealand)?
Its LD50 is > 20000 mg/kg.

How did the LD50 (Rattus norvegicus [1]; oral, gavage, Fischer 344) turn out when `CCCCCCCCCCc1cccc(Oc2ccccc2S(=O)(=O)[O-])c1S(=O)(=O)[O-].[Na+].[Na+]` [Disodium n-decyldiphenyl ether disulfonate] was run?
The LD50 was > 2000 mg/kg.

And the LD50 (Rattus norvegicus [1]; oral, gavage, Sprague-Dawley)?
The LD50 was 3560 mg/kg.

And the LD50 (Oryctolagus sp.; dermal, occlusive, New Zealand)?
The LD50 was > 2000 mg/kg.

Which results are given for `CCCCCCCCCCCCCCCCCCOP1OCC2(CO1)COP(OCCCCCCCCCCCCCCCCCC)OC2` (stereo not drawn) [Distearyl pentaerythritol diphosphite]?
LD50 (Rattus norvegicus [1]; oral, gavage, Sherman Wistar): > 10000 mg/kg; NOAEL (Rattus norvegicus [1]; subchronic, duration: 90 days, oral, diet, Sprague-Dawley): > 288 mg/kg-day; LD50 (Oryctolagus sp.; dermal, New Zealand): > 2000 mg/kg

What does the source list for `CCCCCCCCCCCCCCCCCCN(C)CCCCCCCCCCCCCCCCCC` [Distearylmethylamine]?
LD50 (Rattus norvegicus [1]; oral, gavage, Sprague-Dawley): > 5000 mg/kg; LD50 (Rattus norvegicus [1]; oral, gavage, Wistar): > 2000 mg/kg; LOAEL (% diet) (Rattus norvegicus [1]; subchronic, duration: 13 weeks, oral, diet, Sprague-Dawley): 0.15; LD50 (Oryctolagus sp.; dermal, occlusive, New Zealand): > 2000 mg/kg

Reference: EPA's ToxValDB 9.5
